# In ChEMBL document CHEMBL5465560, “Selectivity Literature for EUbOPEN Chemogenomic Library” (2024):
# Legend:
# [1] = Selectivity interaction (Ambit KINOMEscan and KiNATiv profiling in Jurkat cells) EUB0000090b CDPK1; settings: Selectivity number of off-targets 9; Selectivity number of targets 456; Source Knowledge https://www.nature.com/articles/nchembio.2166; at 1 µM
# [2] = target: Calcium/calmodulin-dependent protein kinase type 1 (Homo sapiens) (UniProt Q14012); test: Selectivity interaction (Kinase panel (literature)) EUB0001199aCl CAMK1; settings: at 1 µM
# Focal adhesion kinase 1 = Focal adhesion kinase 1 (Homo sapiens, UniProt Q05397); test: Selectivity interaction (KinomeScan (DiscoverX)) EUB0000655a PTK2; settings: at 10 µM
# [3] = target: Mitogen-activated protein kinase kinase kinase kinase 5 (Homo sapiens) (UniProt Q9Y4K4); test: Selectivity interaction (KinomeScan (DiscoverX)) EUB0001079a MAP4K5; settings: at 1 µM
# [4] = target: Wee1-like protein kinase 2 (Homo sapiens) (UniProt P0C1S8); test: Selectivity interaction (KinomeScan (DiscoverX)) EUB0000607a WEE2; settings: at 10 µM
# [5] = target: Tyrosine-protein kinase Fes/Fps (Homo sapiens) (UniProt P07332); test: Selectivity interaction (SelectScreen profiling (Invitrogen)) EUB0000607a FES; settings: at 2 µM
# [6] = target: T1, Dual specificity mitogen-activated protein kinase kinase 5 (Homo sapiens) (UniProt Q13163); test: Selectivity interaction (KinomeScan (DiscoverX)) EUB0001619a MAP2K5; settings: at 1 µM
# T1 sequence (whole entry): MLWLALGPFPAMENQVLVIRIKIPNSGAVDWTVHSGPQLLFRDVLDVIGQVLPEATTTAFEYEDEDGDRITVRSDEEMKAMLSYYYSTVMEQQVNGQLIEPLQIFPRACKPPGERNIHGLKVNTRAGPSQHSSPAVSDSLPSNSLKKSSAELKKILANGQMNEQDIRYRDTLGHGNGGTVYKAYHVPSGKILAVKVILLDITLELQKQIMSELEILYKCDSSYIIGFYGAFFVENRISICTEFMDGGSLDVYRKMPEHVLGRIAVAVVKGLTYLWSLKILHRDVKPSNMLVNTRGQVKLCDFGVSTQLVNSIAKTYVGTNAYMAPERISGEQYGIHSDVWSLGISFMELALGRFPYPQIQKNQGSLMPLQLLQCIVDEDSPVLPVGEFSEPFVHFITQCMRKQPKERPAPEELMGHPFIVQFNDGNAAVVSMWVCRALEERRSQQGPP
# [7] = target: Cyclin-dependent kinase 16 (Homo sapiens) (UniProt Q00536); test: Selectivity interaction (Kinase panel (KiNativ target engagement assay in Jurkat cells)) EUB0001635a CDK16; type: cell-based; settings: Selectivity number of off-targets 0.0, Selectivity number of targets 233.0, Source Knowledge https://www.sciencedirect.com/science/article/pii/S2451945619300674?via%3Dihub, at 1 µM
# [8] = target: Serine/threonine-protein kinase MRCK gamma (Homo sapiens) (UniProt Q6DT37); settings: at 10 µM
# [9] = target: Mitogen-activated protein kinase kinase kinase 11 (Homo sapiens) (UniProt Q16584); test: Selectivity interaction (ActivX KiNativ screen (kinase selectivity in THP-1 cell lysates)) EUB0000639a MAP3K11; type: subcellular; settings: lysate, at 5 µM
# [10] = target: Serine/threonine-protein kinase MARK2 (Homo sapiens) (UniProt Q7KZI7); test: Selectivity interaction (ActivX KiNativ screen (kinase selectivity in THP-1 cell lysates)) EUB0000639a MARK2; type: subcellular; settings: lysate, at 5 µM
# [11] = target: Bromodomain-containing protein 2 (Homo sapiens) (UniProt P25440); test: Selectivity interaction (Bromodomain panel (DSF asssay)) EUB0000270b BRD2
# [12] = test system: Receptor-type tyrosine-protein kinase FLT3 (Homo sapiens), P36888 [UNDEFINED MUTATION]; test: Selectivity interaction (KinomeScan (DiscoverX)) EUB0000229b FLT3; settings: at 1 µM
# [13] = target: T2, Serine/threonine-protein kinase Nek11 (Homo sapiens) (UniProt Q8NG66); test: Selectivity interaction (KinomeScan (DiscoverX)) EUB0000229b NEK11; settings: at 10 µM
# T2 sequence (whole entry): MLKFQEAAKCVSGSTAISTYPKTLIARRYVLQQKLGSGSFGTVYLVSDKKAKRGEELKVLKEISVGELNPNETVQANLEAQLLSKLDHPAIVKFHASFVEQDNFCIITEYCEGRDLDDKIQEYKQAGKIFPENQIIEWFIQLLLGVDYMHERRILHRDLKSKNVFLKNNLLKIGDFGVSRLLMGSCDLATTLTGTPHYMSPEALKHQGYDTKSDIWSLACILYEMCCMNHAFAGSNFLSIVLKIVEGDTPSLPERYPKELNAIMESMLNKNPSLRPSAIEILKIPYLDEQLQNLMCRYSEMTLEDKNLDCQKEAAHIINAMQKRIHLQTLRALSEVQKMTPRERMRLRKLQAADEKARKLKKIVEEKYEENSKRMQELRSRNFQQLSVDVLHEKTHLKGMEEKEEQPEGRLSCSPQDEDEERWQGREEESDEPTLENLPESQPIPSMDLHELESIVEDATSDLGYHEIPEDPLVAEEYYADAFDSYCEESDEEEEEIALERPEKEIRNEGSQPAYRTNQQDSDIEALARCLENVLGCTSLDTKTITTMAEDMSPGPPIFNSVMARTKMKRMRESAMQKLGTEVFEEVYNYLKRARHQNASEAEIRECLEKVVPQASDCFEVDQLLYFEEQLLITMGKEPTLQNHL
# [14] = target: T3, Rhodopsin kinase GRK7 (Homo sapiens) (UniProt Q8WTQ7); test: Selectivity interaction (ProQinase) EUB0000171b GRK7
# T3 sequence (whole entry): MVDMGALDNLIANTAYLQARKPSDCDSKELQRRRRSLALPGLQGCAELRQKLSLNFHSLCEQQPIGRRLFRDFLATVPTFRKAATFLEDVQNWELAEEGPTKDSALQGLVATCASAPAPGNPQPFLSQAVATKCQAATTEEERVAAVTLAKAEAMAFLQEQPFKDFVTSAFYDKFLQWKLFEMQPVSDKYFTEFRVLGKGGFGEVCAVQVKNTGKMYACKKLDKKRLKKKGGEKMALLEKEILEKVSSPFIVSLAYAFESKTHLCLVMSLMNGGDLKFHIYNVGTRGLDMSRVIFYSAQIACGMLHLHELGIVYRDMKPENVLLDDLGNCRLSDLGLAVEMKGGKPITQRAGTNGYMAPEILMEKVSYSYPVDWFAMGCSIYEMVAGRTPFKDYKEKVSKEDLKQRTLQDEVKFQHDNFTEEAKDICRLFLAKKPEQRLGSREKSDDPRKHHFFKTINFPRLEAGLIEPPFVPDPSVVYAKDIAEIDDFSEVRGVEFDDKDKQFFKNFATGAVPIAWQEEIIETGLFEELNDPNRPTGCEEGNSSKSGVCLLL
# [15] = target: Serine/threonine-protein kinase WNK1 (Homo sapiens) (UniProt Q9H4A3); test: Selectivity interaction (KinomeScan (DiscoverX)) EUB0000666a WNK1; settings: at 10 µM
# [16] = target: Mitogen-activated protein kinase 9 (Homo sapiens, UniProt P45984); test: Selectivity interaction (KinomeScan (DiscoverX)) EUB0000695a MAPK9; settings: at 100 nM
# Sequence of Bromodomain-containing protein 2 (Homo sapiens) (P25440 whole entry, looked up): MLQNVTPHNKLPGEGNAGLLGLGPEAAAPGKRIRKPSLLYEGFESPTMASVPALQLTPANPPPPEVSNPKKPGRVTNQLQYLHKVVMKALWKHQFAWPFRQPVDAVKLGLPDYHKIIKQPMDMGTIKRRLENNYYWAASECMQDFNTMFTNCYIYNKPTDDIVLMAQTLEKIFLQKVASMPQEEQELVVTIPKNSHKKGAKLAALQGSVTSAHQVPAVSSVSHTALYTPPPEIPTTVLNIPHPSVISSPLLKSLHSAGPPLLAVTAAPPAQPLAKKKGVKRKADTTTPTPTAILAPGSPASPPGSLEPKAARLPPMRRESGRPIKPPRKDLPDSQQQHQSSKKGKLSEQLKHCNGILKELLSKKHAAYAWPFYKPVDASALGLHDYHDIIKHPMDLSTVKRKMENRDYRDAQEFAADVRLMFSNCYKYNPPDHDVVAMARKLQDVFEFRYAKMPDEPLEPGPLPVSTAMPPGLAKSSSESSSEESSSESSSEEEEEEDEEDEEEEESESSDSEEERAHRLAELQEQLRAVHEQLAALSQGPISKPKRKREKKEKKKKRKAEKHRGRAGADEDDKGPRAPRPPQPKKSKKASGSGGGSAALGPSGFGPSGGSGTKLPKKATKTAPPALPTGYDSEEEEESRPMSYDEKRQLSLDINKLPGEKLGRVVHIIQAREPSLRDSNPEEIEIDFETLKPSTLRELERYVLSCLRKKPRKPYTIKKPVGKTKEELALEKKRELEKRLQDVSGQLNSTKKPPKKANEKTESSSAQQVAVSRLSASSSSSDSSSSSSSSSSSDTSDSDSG
# Sequence of Cyclin-dependent kinase 16 (Homo sapiens) (Q00536 whole entry): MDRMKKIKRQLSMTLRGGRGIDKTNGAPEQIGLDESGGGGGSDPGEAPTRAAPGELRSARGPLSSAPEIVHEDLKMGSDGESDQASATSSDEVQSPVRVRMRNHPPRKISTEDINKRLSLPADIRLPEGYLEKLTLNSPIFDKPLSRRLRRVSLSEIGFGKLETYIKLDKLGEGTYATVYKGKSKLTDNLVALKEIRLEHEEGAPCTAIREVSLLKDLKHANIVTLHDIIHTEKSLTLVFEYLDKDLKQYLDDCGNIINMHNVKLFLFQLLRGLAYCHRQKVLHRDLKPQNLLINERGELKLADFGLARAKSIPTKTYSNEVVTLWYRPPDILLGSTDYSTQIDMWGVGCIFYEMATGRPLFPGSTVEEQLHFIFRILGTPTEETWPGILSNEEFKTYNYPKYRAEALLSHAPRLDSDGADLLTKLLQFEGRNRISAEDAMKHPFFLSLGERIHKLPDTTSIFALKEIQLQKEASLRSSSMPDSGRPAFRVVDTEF
# Sequence of Receptor-type tyrosine-protein kinase FLT3 (Homo sapiens), P36888 [UNDEFINED MUTATION] (P36888 whole entry, looked up, change not shown): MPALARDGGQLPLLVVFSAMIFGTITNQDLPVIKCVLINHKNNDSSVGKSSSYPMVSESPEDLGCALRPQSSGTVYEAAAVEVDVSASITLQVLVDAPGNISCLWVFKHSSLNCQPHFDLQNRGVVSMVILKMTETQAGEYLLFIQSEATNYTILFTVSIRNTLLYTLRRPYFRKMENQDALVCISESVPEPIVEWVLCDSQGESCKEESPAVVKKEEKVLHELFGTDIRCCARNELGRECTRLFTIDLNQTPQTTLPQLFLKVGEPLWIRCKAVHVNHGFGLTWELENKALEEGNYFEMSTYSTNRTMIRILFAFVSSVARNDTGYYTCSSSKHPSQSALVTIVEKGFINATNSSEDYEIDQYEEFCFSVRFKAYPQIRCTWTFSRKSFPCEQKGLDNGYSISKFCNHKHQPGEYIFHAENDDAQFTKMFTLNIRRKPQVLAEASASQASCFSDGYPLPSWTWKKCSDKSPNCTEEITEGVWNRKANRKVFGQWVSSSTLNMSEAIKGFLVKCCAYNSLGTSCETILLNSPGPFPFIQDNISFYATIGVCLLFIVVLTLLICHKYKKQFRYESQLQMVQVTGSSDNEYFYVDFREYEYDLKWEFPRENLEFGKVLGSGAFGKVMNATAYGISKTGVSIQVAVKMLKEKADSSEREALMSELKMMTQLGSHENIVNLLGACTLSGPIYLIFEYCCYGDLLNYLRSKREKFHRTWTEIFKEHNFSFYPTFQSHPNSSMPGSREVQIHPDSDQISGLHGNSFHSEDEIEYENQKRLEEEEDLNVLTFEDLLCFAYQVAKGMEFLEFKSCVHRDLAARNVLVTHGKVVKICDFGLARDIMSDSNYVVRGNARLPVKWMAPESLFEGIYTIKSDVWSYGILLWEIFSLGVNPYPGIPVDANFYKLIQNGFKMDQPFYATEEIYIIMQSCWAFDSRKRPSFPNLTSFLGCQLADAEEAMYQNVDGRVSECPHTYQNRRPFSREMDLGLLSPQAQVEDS
# Sequence of Focal adhesion kinase 1 (Q05397 2-1052 limits assumed): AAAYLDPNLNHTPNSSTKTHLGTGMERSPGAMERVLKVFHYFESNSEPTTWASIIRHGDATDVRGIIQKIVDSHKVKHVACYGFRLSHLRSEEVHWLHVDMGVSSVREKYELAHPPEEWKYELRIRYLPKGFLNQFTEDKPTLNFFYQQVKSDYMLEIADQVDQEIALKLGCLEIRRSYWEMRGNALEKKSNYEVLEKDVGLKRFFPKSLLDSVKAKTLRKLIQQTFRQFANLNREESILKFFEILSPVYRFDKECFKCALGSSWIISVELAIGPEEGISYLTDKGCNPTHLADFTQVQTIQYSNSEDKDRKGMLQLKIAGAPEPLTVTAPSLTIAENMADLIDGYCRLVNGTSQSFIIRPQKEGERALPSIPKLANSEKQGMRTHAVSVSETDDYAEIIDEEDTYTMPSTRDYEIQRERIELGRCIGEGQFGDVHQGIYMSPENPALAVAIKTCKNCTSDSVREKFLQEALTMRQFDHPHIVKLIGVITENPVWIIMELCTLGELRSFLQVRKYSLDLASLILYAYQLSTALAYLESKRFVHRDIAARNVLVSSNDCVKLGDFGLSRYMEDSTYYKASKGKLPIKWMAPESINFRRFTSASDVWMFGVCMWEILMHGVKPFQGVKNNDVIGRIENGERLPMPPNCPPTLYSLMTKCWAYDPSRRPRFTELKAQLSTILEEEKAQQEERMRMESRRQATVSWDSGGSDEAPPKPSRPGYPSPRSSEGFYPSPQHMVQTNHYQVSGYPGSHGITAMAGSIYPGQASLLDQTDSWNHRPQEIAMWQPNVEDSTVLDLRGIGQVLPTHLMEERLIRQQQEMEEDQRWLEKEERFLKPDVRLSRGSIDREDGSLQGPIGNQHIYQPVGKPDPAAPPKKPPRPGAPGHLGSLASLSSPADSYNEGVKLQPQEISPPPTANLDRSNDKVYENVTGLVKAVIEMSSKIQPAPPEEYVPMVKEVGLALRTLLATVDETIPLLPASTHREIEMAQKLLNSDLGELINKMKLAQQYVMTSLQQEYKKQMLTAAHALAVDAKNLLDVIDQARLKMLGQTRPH
# Sequence of Wee1-like protein kinase 2 (Homo sapiens) (P0C1S8 whole entry, looked up): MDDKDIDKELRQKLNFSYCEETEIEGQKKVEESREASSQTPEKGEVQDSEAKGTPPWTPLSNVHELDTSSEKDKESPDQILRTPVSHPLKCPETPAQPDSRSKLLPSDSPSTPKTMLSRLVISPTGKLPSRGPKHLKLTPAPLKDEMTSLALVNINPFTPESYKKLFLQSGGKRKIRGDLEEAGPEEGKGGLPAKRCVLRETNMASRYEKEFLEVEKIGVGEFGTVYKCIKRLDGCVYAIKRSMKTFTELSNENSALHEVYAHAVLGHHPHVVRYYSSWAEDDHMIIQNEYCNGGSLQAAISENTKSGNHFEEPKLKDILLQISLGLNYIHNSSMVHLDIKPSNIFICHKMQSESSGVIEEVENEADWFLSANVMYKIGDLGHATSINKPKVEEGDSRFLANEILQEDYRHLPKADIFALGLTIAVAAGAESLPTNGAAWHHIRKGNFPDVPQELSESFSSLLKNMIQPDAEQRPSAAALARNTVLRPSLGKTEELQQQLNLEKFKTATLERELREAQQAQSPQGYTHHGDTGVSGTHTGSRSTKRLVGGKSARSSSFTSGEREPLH
# Sequence of Tyrosine-protein kinase Fes/Fps (Homo sapiens) (P07332 whole entry): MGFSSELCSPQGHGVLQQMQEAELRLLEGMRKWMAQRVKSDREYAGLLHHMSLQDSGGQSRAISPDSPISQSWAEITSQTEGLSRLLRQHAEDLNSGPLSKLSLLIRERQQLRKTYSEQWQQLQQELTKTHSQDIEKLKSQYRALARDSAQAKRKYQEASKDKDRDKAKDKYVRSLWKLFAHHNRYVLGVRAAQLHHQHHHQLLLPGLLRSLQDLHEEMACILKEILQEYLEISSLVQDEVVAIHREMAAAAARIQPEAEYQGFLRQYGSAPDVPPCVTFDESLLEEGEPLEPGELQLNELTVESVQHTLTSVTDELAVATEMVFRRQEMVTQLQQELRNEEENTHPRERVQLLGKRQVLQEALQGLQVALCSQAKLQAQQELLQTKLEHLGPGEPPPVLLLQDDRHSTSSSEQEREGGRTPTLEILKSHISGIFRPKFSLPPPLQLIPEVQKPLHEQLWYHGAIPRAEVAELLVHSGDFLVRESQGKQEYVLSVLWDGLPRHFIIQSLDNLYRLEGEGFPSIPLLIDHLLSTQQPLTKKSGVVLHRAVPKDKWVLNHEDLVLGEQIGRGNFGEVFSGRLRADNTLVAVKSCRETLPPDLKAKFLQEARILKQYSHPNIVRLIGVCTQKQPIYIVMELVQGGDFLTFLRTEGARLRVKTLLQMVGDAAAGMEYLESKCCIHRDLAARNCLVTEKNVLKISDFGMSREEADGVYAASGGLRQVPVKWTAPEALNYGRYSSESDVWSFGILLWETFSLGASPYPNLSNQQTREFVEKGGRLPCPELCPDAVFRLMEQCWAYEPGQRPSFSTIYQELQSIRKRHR
compound,measurement,setting,value
CN(C)C/C=C/C(=O)Nc1ccc(C(=O)N2CCCC(Nc3ncc(Cl)c(-c4c[nH]c5ccccc45)n3)C2)cc1 (stereo not drawn),% of control,[1],7%
CN1Cc2nccc(-c3cn(C)nc3-c3ccc(F)cc3)c2C1=O,% of inhibition,[2],-9%
CN(C)CCOc1ccc(-c2nc(-c3ccncc3)c(-c3ccc4c(c3)CC/C4=N\O)[nH]2)cc1,% of control,Focal adhesion kinase 1,100%
Nc1cnc(N2CCc3cc(S(=O)(=O)Nc4c(F)cc(Cl)cc4F)cc(N4CCCC4=O)c32)nc1 [TP-020n],% of control,[3],73%
CNC(=O)Nc1ccc(-c2nc(N3CC4CCC(C3)O4)c3cnn(C4CCC5(CC4)OCCO5)c3n2)cc1,% of control,[4],100%
same,% of inhibition,[5],-1%
N#Cc1cccc(-c2c[nH]c3ncnc(N4CCOCC4)c23)c1,% of control,[6],14%
C=CC(=O)Nc1ccc(C(=O)Nc2[nH]nc3c2CN(C(=O)N[C@H](CN(C)C)c2ccccc2)C3(C)C)cc1,% of engagement,[7],2.3%
Cc1cc([C@@H](C)Nc2ccccc2C(=O)O)c2nc(N3CCOCC3)cc(=O)n2c1 [AZD-6482],% of control,[8],100%
CC[C@@H]1[C@H](F)C(=O)N[C@@H]1COc1nccc2cc(C(N)=O)c(OC)cc12 [ZIMLOVISERTIB],% of inhibition,[9],-18.7%
same,% of inhibition,[10],45.6%
Cc1cc(CN)cc(C)c1-c1ncn(C)c1-c1cncn1C,dTM,[11],-1.04 K
COc1cc(N(C)c2ccnc3ccc(C(F)(F)F)cc23)cc(OC)c1OC,% binding,[12],93%
same,% binding,[13],91%
C=CC(=O)Nc1cccc(C(=O)Nc2ccc(Nc3cc(-c4[nH]c(SC)nc4C)ccn3)cc2)c1,% of control,[14]; at 1 µM,100%
same,% of control,[14]; at 5 µM,99%
O=C(NOC[C@H](O)CO)c1ccc(F)c(F)c1Nc1ccc(I)cc1F,% of control,[15],92%
Cc1cc(F)c(C(=O)Nc2cccc(-c3nncn3C(C)C)n2)cc1-n1cnc(C2CC2)c1,% of control,[16],78%
